Literature values in patent publication US20060127478A1, “Oral dosage formulation” (priority 2003, published 2006).
Read-outs that look alike come from different tables or passages of the source.

Assays:
[1] = Taha et al., NEJM 1996
[2] = test system: gastric secretion; conditions: following oral administration
[3] = in vivo

Structure (SMILES)	frequency of gastric and duodenal ulcers associated with non-selective NSAIDs (diclofenac, ibuprofen, naproxen, ketoprofen) [1]	time at which basal, nocturnal, food and pentagastrin stimulated gastric secretion is inhibited [2]	time to maximum effect on gastric secretion ([2]; maximum effect dose dependent)	nocturnal intra-gastric pH, mean value (nocturnal dose of 20 mg)	nocturnal intra-gastric pH, mean value (nocturnal dose of 40 mg)	basal daytime inter-digestive pH (three and eight hours following administration after breakfast of 20 or 40 mg)	incidence of adverse effects (abdominal pain, diarrhea, nausea, flatulence) [3]
NC(N)=Nc1nc(CSCCC(N)=NS(N)(=O)=O)cs1 [Famotidine]	reduce the frequency	one	one to three	5.0	6.4	about 5	
CCCCC(C)(O)C/C=C/[C@H]1[C@H](O)CC(=O)[C@@H]1CCCCCCC(=O)OC (mixture of isomers) [Misoprostol]							high incidence
